Laboratory results: patent US20090137493A1, “Inhibition of tumor metastases using protein kinase C (PKC) inhibitors” (priority 2007, published 2009)
Bridges are numbered along the chain shown (N, C = ends). Where no end group is shown, it is not given here.

Key:
CXCR4 chemokine receptor = assay: CXCR4 expression on the surface of tumor cells from treated animals; format: in vivo; conditions: cells from primary tumors of treated animals, versus TAT, FIG. 10B
Description: FIG. 10B is a bar graph showing the relative expression levels of CXCR4 chemokine receptor on the surface of tumor cells from animals treated with the TAT carrier peptide (TAT) or the αV5-3-TAT peptide (Alpha inhibitor).
(§1) Cells from primary tumors in animals treated with the αPKC inhibitor were also isolated and assayed for levels of CXCR4 (FIG. 10B) and levels of matrix metalloproteinase 2 (MMP2) activity (FIG. 10C).

JC cells = assay: Wound healing (migration) assay, JC; format: cell-based, mouse; conditions: peptide 1 uM, re-applied every 2 h for 8 h
Procedure: FIGS. 15A-15D are micrographs showing the efficacy of TAT carrier peptide (TAT; FIG. 15A), αV5-3-TAT peptide (Alpha; FIG. 15B), βIIV5-3 peptide (Beta2; FIG. 15C), and εV1-2 (Epsilon; FIG. 15D) on JC cell migration.
(§2) To investigate the role of PKC inhibitors in reducing the migration of tumor cells, in vitro migration assays were performed using MDA-MB-231 breast cancer cells (FIGS. 12A-12D), MCF-7 breast cancer cell (FIGS. 13A-13D), JC cells (FIGS. 15A-15D), and 4T1 cells (FIGS. 16A-16D), in the presence of TAT carrier peptide (TAT), αV5-3-TAT peptide (Alpha), βIIV5-3 peptide (Beta2), or εV1-2 peptide (Epsilon).
(§3) Wound healing assay: Human or mouse breast cancer cell lines were grown in 6-well plates until about 90% confluent. Cells were then grown in serum free media overnight, before media was changed to media +1% FBS and peptide PKC inhibitors added (1 uM), at the same time a pipette tip was drawn across the cell layer to create a scrape ‘wound’. PKC inhibitors were re-applied every 2 h for a total of 8 h, before cells were left for a further 12 h and then the scrape was examined under phase contrast microscopy.

4T1 tumor cells [1] = assay: Growth rate of 4T1 tumor cells in vitro; format: cell-based, mouse; conditions: doses of 0, 1, 5 and 10 μM, compared to TAT carrier peptide control
Procedure: (§4) FIGS. 6B-6C are bar graphs showing the affect of the αV5-3-TAT peptide on growth rate of JC tumor cells (FIG. 6B) and 4T1 tumor cells (FIG. 6C) in vitro. The cells treated with the TAT carrier peptide (TAT) or with αV5-3-TAT peptide (PKC alpha inhibitor), at doses of 0, 1, 5, and 10 μM.
(§5) To determine if the effects observed with the α and βIIPKC peptide inhibitors was due to a decrease in metastasis as opposed to a decrease in primary tumor growth, animals injected with 4T1 tumor cells were treated with saline, the αV5-3-TAT conjugate peptide (αPKC), or the βIIV5-3-TAT conjugate peptide (βPKC) and the number of tumors cells at the primary site of injection were determined.

[2] = test system: matrix metalloproteinase 2 (MMP2); assay: MMP2 activity in tumor cells from treated animals; format: in vivo; conditions: cells from primary tumors of treated animals, versus saline or TAT, FIG. 10C
Description: FIG. 10C is a bar graph showing the relative levels of matrix metalloproteinase 2 (MMP2) activity in tumor cells from animals treated with saline or TAT (untreated) or the αV5-3-TAT peptide (aV5-3).
as §1

4T1 cells = assay: Wound healing (migration) assay, 4T1; format: cell-based, mouse; conditions: peptide 1 uM, re-applied every 2 h for 8 h
Procedure: FIGS. 16A-16D are micrographs showing the efficacy of TAT carrier peptide (TAT; FIG. 16A), αV5-3-TAT peptide (Alpha; FIG. 16B), βIIV5-3 peptide (Beta2; FIG. 16C), and εV1-2 (Epsilon; FIG. 16D) on 4T1 cell migration.
as §2, §3

[3] = Blood cell numbers (white blood cells, lymphocytes, neutrophils) in treated animals; format: in vivo
Description: (§6) FIGS. 11A-11B are bar graphs showing the relative serum levels of liver enzymes aspartate transaminase (AST; FIG. 11A) and alanine transaminase (ALT; FIG. 11B) in animals treated with saline or TAT (untreated) or the αV5-3-TAT peptide (aV5-3). FIGS. 11C-11E are bar graphs showing the relative serum levels of white blood cells (FIG. 11C), lymphocytes (FIG. 11D), and neutrophils (FIG. 11E).
Rather, the numbers of white blood cells (FIG. 11C), lymphocytes (FIG. 11D), and neutrophils (FIG. 11E) were all increased in αV5-3 treated animals compared to control (TAT) treated animals.

[4] = Serum levels of liver enzymes AST and ALT in treated animals; format: in vivo
Description: as §6

4T1 tumor cells [5] = assay: Growth of primary tumors in vivo (number of tumor cells at primary site of injection); set-up: species or system mice; conditions: animals injected with 4T1 tumor cells, FIG. 6A, versus saline
Procedure: FIG. 6A is a bar graph showing the affect of saline, the αV5-3-TAT conjugate peptide (αPKC), or the βIIV5-3-TAT conjugate peptide (βPKC) on the growth rate of primary tumors in vivo.
as §5

JC tumor cells = assay: Growth rate of JC tumor cells in vitro; format: cell-based, mouse; conditions: doses of 0, 1, 5 and 10 μM, compared to TAT carrier peptide control
Procedure: as §4, §5

tumor cells = assay: Survival of animals after intravenous administration of tumor cells; format: in vivo, mice; conditions: versus saline (PBS)
Procedure: FIG. 9 is a graph showing the percent surviving animals in the time (in days) following intravenous administration of tumor cells. The mice were treated with saline (squares; PBS) or the αV5-3-TAT peptide (circles; peptide).

αPKC = biological target: T1, αPKC (Mus musculus, UniProt P20444); assay: Translocation of αPKC in tumor cells (immunoblot of cytosol and particulate fractions); format: in vivo; conditions: FIG. 5A
T1 construct: endogenous in cells; host or cells: 4T1 murine mammary tumour cells grown as tumours in Balb/c mice
Procedure: FIGS. 5A-5B are bar graphs showing the percentage of translocation of αPKC (FIG. 5A) and βIIPKC (FIG. 5B) […] in tumor cells treated with αV5-3-TAT peptide.
To further characterize inhibition of metastasis using the α and βIIPKC inhibitors, the percentage of translocation of αPKC (FIG. 5A) and βIIPKC (FIG. 5B), […] was measured.

beta-1 integrin = assay: Beta-1 integrin expression in cells from primary tumors; format: in vivo; conditions: data not shown
Description: FIG. 10A is a bar graph showing the relative expression levels of beta 1 (βI) integrin on the surface of tumor cells from animals with metastasis (Mets) or no metastasis (No mets).
To better understand the role of PKC inhibitors in reducing metastasis, tumor cells, cells from primary tumors in animals with metastasis (Mets) and without metastasis (No mets) were isolated and assayed for levels of beta-1 integrin (FIG. 10A). The levels of beta-1 integrin were reduced about 50% in animals with no metastasis.

YGRKKRRQRRR-CC-QLVIAN (YGRKKRRQRRRCCQLVIAN; disulfide 12-13 (inferred)) [αV5-3-TAT]
decrease of relative expression levels of CXCR4 chemokine receptor on the surface of tumor cells (CXCR4 chemokine receptor): 4-5 fold | migration of JC cells (JC cells): reduced | inhibition of growth of 4T1 tumor cells in vitro (4T1 tumor cells [1]): does not substantially inhibit | decrease of relative levels of MMP2 activity in tumor cells [2]: about 30% | migration of 4T1 cells in vitro (4T1 cells): did not affect | numbers of white blood cells ([3]; compared to control (TAT) treated animals, FIG. 11C): increased | numbers of lymphocytes ([3]; compared to control (TAT) treated animals, FIG. 11D): increased | numbers of neutrophils ([3]; compared to control (TAT) treated animals, FIG. 11E): increased | signs of immunosuppression ([3]; treated animals, FIGS. 11C-11E): no signs of immunosuppression | decrease of relative serum level of aspartate transaminase (AST) ([4]; treated animals versus saline or TAT, FIG. 11A): about 5 fold | decrease of relative serum level of alanine transaminase (ALT) ([4]; treated animals versus saline or TAT, FIG. 11B): 4-5 fold | serum AST/ALT levels (marker of damage or toxicity of the liver) ([4]; tumor-bearing treated animals): reversed abnormally elevated level of serum AST/ALT levels (a marker of damage or toxicity of the liver) to the normal range | reduction in the number of cells at the primary tumor site (4T1 tumor cells [5]): two-fold | inhibition of growth of JC tumor cells in vitro (JC tumor cells): does not substantially inhibit | survival time (tumor cells): longer survival times | reduction of αPKC translocation (αPKC): about 40% | beta-1 integrin expression (beta-1 integrin): tended to decrease beta-1 integrin expression but the amount was not statistically significant
